Reference: patent US12139520B2 (priority 2020, dated 2024)
Bridge positions count the residues as written; N and C are the ends. Square brackets hold non-standard residues; d marks the D form. Peptide text beside a SMILES is read from it. Hyp = O=C(O)[C@@H]1C[C@@H](O)CN1; Cit = NC(=O)NCCC[C@H](N)C(=O)O

Experiments:
hAM1 receptor = hAM1 receptor (Homo sapiens, UniProt O60895+Q16602); test: cAMP assay for in vitro receptor activation, hAM1-R; assay type: cell-based; details: cAMP assay, hAM1 receptor; read-out: hAM1R EC50
How it was run: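 Stable hAM1 cells (monoclonal) plated 8000/well; buffer DPBS, 0.05% casein, 0.5 mM IBMX; cAMP read-out.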

hAMY3 receptor = molecular target: T1, hAMY3 receptor (Homo sapiens, UniProt O60896+P30988); test: cAMP assay for in vitro receptor activation, hAMY3-R; assay type: cell-based; details: cAMP assay, hAMY3 receptor; read-out: hAMY3R EC50
T1 sequence (P30988 25-474): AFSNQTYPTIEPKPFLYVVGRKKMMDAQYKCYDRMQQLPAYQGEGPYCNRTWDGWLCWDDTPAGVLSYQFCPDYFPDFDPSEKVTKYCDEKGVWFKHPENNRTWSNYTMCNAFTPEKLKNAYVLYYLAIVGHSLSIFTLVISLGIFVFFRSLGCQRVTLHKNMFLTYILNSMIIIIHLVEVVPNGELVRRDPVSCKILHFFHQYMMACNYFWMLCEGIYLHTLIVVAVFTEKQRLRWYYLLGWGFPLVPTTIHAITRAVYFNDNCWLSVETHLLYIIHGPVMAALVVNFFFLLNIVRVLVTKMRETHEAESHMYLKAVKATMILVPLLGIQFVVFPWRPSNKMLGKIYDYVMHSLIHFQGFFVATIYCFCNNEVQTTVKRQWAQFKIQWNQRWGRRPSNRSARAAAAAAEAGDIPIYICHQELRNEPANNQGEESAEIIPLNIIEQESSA
T1 sequence (O60896 24-148 partner): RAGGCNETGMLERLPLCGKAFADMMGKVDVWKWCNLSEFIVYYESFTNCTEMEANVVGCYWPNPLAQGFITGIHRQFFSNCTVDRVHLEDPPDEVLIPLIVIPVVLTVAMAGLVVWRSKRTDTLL
How it was run: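 Accumulated cAMP was detected by time-resolved FRET one hour after reagent addition. Beforehand, hAMY3-R-overexpressing monoclonal cells (2000/well, DPBS, 0.05% casein, 0.5 mM IBMX) received graded doses of compound for 30 min at room temperature; human amylin served as positive control.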

[1] = Physical stability of peptide analogues (Thioflavin T fibrillation); assay type: physicochemical; details: maximum ThT signal normalized between hAMY maximum and buffer background; 40° C., shaking, four days; pH 7 per table title
How it was run: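 1 h in 50 mM NaOAc pH 4 / 50 mM NaPi pH 7; + ThT 4 μM final; 40 °C, 700 rpm linear shake 5 min pre-read; ex 450, em 480 nm q10 min × 4 d; LOESS smoothing; max signal normalised to hAMY max vs buffer blank.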

Sequence of hAM1 receptor (Q16602 23-461): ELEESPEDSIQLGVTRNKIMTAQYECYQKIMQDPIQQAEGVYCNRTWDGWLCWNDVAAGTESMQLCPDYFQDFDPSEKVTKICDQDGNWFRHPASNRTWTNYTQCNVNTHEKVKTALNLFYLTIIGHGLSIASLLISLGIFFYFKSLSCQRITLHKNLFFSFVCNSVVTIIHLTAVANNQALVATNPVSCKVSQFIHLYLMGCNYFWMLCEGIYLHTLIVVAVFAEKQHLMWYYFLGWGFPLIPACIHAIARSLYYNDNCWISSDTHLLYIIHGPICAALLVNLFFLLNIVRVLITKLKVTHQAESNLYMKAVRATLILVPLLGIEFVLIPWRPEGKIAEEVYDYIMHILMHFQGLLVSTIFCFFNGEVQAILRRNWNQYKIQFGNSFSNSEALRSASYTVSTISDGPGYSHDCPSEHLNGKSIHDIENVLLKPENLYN
Sequence of hAM1 receptor (O60895 43-175 partner): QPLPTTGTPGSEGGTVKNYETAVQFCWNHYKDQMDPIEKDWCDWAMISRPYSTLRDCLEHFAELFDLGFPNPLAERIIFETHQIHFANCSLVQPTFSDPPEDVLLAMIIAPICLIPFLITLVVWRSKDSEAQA

Row | Structure (SMILES) | EC50 (hAM1 receptor) [nM] | EC50 (hAMY3 receptor) [nM] | Max ThT signal (%) [1] [%]
1 | CC[C@H](C)[C@H](NC(=O)[C@H](CC(N)=O)NC(=O)[C@@H](NC(=O)[C@H](CCCNC(=N)N)NC(=O)[C@@H]1CCCN1C(=O)[C@H](C)NC(=O)[C@@H](NC(=O)[C@H](CC(N)=O)NC(=O)[C@H](CC(=O)O)NC(=O)[C@H](CCCCN)NC(=O)[C@H](CC(=O)O)NC(=O)[C@H](CCCCN)NC(=O)[C@H](CC(=O)O)NC(=O)[C@@H](NC(=O)[C@H](Cc1ccccc1)NC(=O)[C@H](CCC(N)=O)NC(=O)[C@H](Cc1ccc(O)cc1)NC(=O)[C@@H](NC(=O)[C@H](CCC(N)=O)NC(=O)[C@H](Cc1c[nH]cn1)NC(=O)[C@H](C)NC(=O)[C@H](CC(C)C)NC(=O)[C@H](CCCNC(N)=O)NC(=O)[C@H](CCC(N)=O)NC(=O)[C@@H](NC(=O)[C@@H](NC(=O)[C@@H]1CSSC[C@H](NC(=O)CN)C(=O)N[C@@H](CCCNC(=N)N)C(=O)N[C@@H]([C@@H](C)O)C(=O)NCC(=O)N[C@@H]([C@@H](C)O)C(=O)N1)[C@@H](C)O)C(C)C)[C@@H](C)CC)[C@@H](C)O)C(C)C)[C@@H](C)O)C(=O)NCC(=O)N1CCC[C@H]1C(=O)N[C@@H](CCC(N)=O)C(=O)NCC(=O)N1C[C@H](O)C[C@H]1C(N)=O [compound 280] (H-GCRTGTCTVQ[Cit]LAHQIYQFTDKDKDNVAPRTNIGPQG[Hyp]-NH2; disulfide 2-7; N-terminus assumed) | > 5000 | 0.024 | 26.450
2 | CC[C@H](C)[C@H](NC(=O)[C@H](CCC(N)=O)NC(=O)[C@H](Cc1c[nH]cn1)NC(=O)[C@H](C)NC(=O)[C@H](CC(C)C)NC(=O)[C@H](CCCNC(=N)N)NC(=O)[C@H](CCC(N)=O)NC(=O)[C@@H](NC(=O)[C@@H](NC(=O)[C@@H]1CSSC[C@H](NC(=O)[C@@H](N)CCCCN)C(=O)N[C@@H](CC(N)=O)C(=O)N[C@@H]([C@@H](C)O)C(=O)N[C@@H](C)C(=O)N[C@@H]([C@@H](C)O)C(=O)N1)[C@@H](C)O)C(C)C)C(=O)N[C@@H](Cc1ccc(O)cc1)C(=O)N[C@@H](CCC(N)=O)C(=O)N[C@@H](Cc1ccccc1)C(=O)N[C@H](C(=O)N[C@@H](CC(=O)O)C(=O)N[C@@H](CCCCN)C(=O)N[C@@H](C)C(=O)N[C@@H](CCCCN)C(=O)N[C@@H](CC(=O)O)C(=O)N[C@@H](CC(N)=O)C(=O)N[C@H](C(=O)N[C@@H](C)C(=O)N1CCC[C@H]1C(=O)N1CCC[C@H]1C(=O)N[C@H](C(=O)N[C@@H](CC(N)=O)C(=O)N[C@H](C(=O)NCC(=O)N[C@@H](CO)C(=O)N[C@@H](CC(N)=O)C(=O)NCC(=O)N1C[C@H](O)C[C@H]1C(N)=O)C(C)C)[C@@H](C)O)C(C)C)[C@@H](C)O [compound 43] (H-KCNTATCTVQRLAHQIYQFTDKAKDNVAPPTNVGSNG[Hyp]-NH2; disulfide 2-7; N-terminus assumed) | > 5000 | 0.01 | 1.200
3 | CC[C@H](C)[C@H](NC(=O)[C@H](CCC(N)=O)NC(=O)[C@H](CCC(=O)O)NC(=O)[C@H](C)NC(=O)[C@H](CC(C)C)NC(=O)[C@H](CCCNC(N)=O)NC(=O)[C@H](C)NC(=O)[C@@H](NC(=O)[C@@H](NC(=O)[C@@H]1CSSC[C@H](NC(=O)[C@@H](N)CCCNC(=N)N)C(=O)N[C@@H](CCC(N)=O)C(=O)N[C@@H]([C@@H](C)O)C(=O)N[C@@H](CO)C(=O)N[C@@H]([C@@H](C)O)C(=O)N1)[C@@H](C)O)C(C)C)C(=O)N[C@@H](C)C(=O)N[C@@H](CCC(N)=O)C(=O)N[C@@H](Cc1ccc(O)cc1)C(=O)N[C@H](C(=O)N[C@@H](CC(=O)O)C(=O)N[C@@H](CCCCN)C(=O)N[C@@H](CC(=O)O)C(=O)N[C@@H](CCCCN)C(=O)N[C@@H](CC(=O)O)C(=O)N[C@@H](CCC(N)=O)C(=O)N[C@H](C(=O)N[C@@H](C)C(=O)N1CCC[C@H]1C(=O)N1CCC[C@H]1C(=O)N[C@H](C(=O)N[C@@H](CC(N)=O)C(=O)N[C@H](C(=O)NCC(=O)N[C@@H](CO)C(=O)N[C@@H](CC(N)=O)C(=O)N[C@@H](CO)C(=O)N1C[C@H](O)C[C@H]1C(N)=O)C(C)C)[C@@H](C)O)C(C)C)[C@@H](C)O [compound 256] (H-RCQTSTCTVA[Cit]LAEQIAQYTDKDKDQVAPPTNVGSNS[Hyp]-NH2; disulfide 2-7; N-terminus assumed) | > 5000 | 0.007 | 18.650
4 | CC[C@H](C)[C@H](NC(=O)[C@H](CCC(N)=O)NC(=O)[C@H](Cc1c[nH]cn1)NC(=O)[C@H](C)NC(=O)[C@H](CC(C)C)NC(=O)[C@H](CCCNC(N)=O)NC(=O)[C@H](CCC(N)=O)NC(=O)[C@@H](NC(=O)[C@@H](NC(=O)[C@@H]1CSSC[C@H](NC(=O)CN)C(=O)N[C@@H](CCCNC(=N)N)C(=O)N[C@@H](Cc2ccccc2)C(=O)NCC(=O)N[C@@H]([C@@H](C)O)C(=O)N1)[C@@H](C)O)C(C)C)C(=O)N[C@@H](Cc1ccc(O)cc1)C(=O)N[C@@H](CCC(N)=O)C(=O)N[C@@H](Cc1ccccc1)C(=O)N[C@H](C(=O)N[C@@H](CC(=O)O)C(=O)N[C@@H](CCCCN)C(=O)N[C@@H](CC(=O)O)C(=O)N[C@@H](CCCCN)C(=O)N[C@@H](CC(=O)O)C(=O)N[C@@H](CC(N)=O)C(=O)N[C@H](C(=O)N[C@@H](C)C(=O)N1CCC[C@H]1C(=O)N[C@@H](CCCNC(=N)N)C(=O)N[C@H](C(=O)N[C@@H](CC(N)=O)C(=O)N[C@H](C(=O)N[C@@H](CO)C(=O)N1CCC[C@H]1C(=O)N[C@@H](CCC(N)=O)C(=O)NCC(=O)N1C[C@H](O)C[C@H]1C(N)=O)[C@@H](C)CC)[C@@H](C)O)C(C)C)[C@@H](C)O [compound 291] (H-GCRFGTCTVQ[Cit]LAHQIYQFTDKDKDNVAPRTNISPQG[Hyp]-NH2; disulfide 2-7) | > 5000 | 0.064 | 19.200

Next, values leading:

Row | EC50 (hAM1 receptor) [nM] | EC50 (hAMY3 receptor) [nM] | Max ThT signal (%) [1] [%] | Structure (SMILES)
5 | > 5000 | 0.01 | 32.700 | CC[C@H](C)[C@H](NC(=O)[C@H](CCC(N)=O)NC(=O)[C@H](Cc1c[nH]cn1)NC(=O)[C@H](C)NC(=O)[C@H](CC(C)C)NC(=O)[C@H](CCCNC(N)=O)NC(=O)[C@H](CCC(N)=O)NC(=O)[C@@H](NC(=O)[C@@H](NC(=O)[C@@H]1CSSC[C@H](NC(=O)[C@@H](N)CCCCN)C(=O)N[C@@H](CC(N)=O)C(=O)N[C@@H]([C@@H](C)O)C(=O)N[C@@H](C)C(=O)N[C@@H]([C@@H](C)O)C(=O)N1)[C@@H](C)O)C(C)C)C(=O)N[C@@H](Cc1ccc(O)cc1)C(=O)N[C@@H](CCC(N)=O)C(=O)N[C@@H](Cc1ccccc1)C(=O)N[C@H](C(=O)N[C@@H](CC(=O)O)C(=O)N[C@@H](CCCCN)C(=O)N[C@@H](C)C(=O)N[C@@H](CCCCN)C(=O)N[C@@H](CC(=O)O)C(=O)N[C@@H](CC(N)=O)C(=O)N[C@H](C(=O)N[C@@H](C)C(=O)N1CCC[C@H]1C(=O)N1CCC[C@H]1C(=O)N[C@H](C(=O)N[C@@H](CC(N)=O)C(=O)N[C@H](C(=O)NCC(=O)N[C@@H](CO)C(=O)N[C@@H](CC(N)=O)C(=O)NCC(=O)N1C[C@H](O)C[C@H]1C(N)=O)C(C)C)[C@@H](C)O)C(C)C)[C@@H](C)O [compound 258] (H-KCNTATCTVQ[Cit]LAHQIYQFTDKAKDNVAPPTNVGSNG[Hyp]-NH2; disulfide 2-7; N-terminus assumed)
6 | > 5000 | 0.008 | 8.200 | CC[C@H](C)[C@H](NC(=O)[C@H](CCC(N)=O)NC(=O)[C@H](Cc1c[nH]cn1)NC(=O)[C@H](C)NC(=O)[C@H](CC(C)C)NC(=O)[C@H](CCCNC(=N)N)NC(=O)[C@H](CCC(N)=O)NC(=O)[C@@H](NC(=O)[C@@H](NC(=O)[C@@H]1CSSC[C@H](NC(=O)[C@@H](N)CCCCN)C(=O)N[C@@H](CC(N)=O)C(=O)N[C@@H]([C@@H](C)O)C(=O)N[C@@H](C)C(=O)N[C@@H]([C@@H](C)O)C(=O)N1)[C@@H](C)O)C(C)C)C(=O)N[C@@H](Cc1ccc(O)cc1)C(=O)N[C@@H](CCC(N)=O)C(=O)N[C@@H](Cc1ccccc1)C(=O)N[C@H](C(=O)N[C@@H](CC(=O)O)C(=O)N[C@@H](CCCCN)C(=O)N[C@@H](CC(=O)O)C(=O)N[C@@H](CCCCN)C(=O)N[C@@H](CC(=O)O)C(=O)N[C@@H](CC(N)=O)C(=O)N[C@H](C(=O)N[C@@H](C)C(=O)N1CCC[C@H]1C(=O)N[C@@H](C)C(=O)N[C@H](C(=O)N[C@@H](CC(N)=O)C(=O)N[C@H](C(=O)NCC(=O)N[C@@H](CO)C(=O)N[C@@H](CC(N)=O)C(=O)NCC(=O)N1C[C@H](O)C[C@H]1C(N)=O)C(C)C)[C@@H](C)O)C(C)C)[C@@H](C)O [compound 28] (H-KCNTATCTVQRLAHQIYQFTDKDKDNVAPATNVGSNG[Hyp]-NH2; disulfide 2-7; N-terminus assumed)
